Measured values taken from patent publication US20040186082A1, “Enhanced phototherapy for the treatment of cancer and autoimmune disease” (priority 2003, published 2004).

System: psoriatic lesion on the leg
Experiment: Treatment of a psoriatic lesion with topical ointment and UVB irradiation (single patient)
Assay type: in vivo
Details: VES 20 mg/gram ointment applied 1 day after provitamin D + UVB (3 MED); within 12 hours
Method: Treatment of psoriasis with UVB irradiation. A patient with a ½ inch round psoriatic lesion on the leg was treated with provitamin D (35 mg/gram ointment) and irradiated with UVB (3 MED). […] The formally lesional tissue looked like normal healthy tissue.

Cc1c(C)c2c(c(C)c1OC(=O)CCC(=O)O)CC[C@@](C)(CCC[C@H](C)CCC[C@H](C)CCCC(C)C)O2 [Vitamin E succinate]
appearance of the treated tissue (induration, redness): the tissue was not indurated and the redness disappeared
